Molecules are shown by their SMILES.

Experiment [1] concerns the target full-length MALT1 protein (Strep-MALT1(1-824)-His) (Homo sapiens (Human), UniProt Q9UDY8). The experiment is described as follows: MALT1 Biochemical Protease Assay (Ac-LRSR-AMC substrate). The note with it: 10 nM FL MALT1, 200 μM Ac-LRSR-AMC, 4 h at RT; read-out: MALT1_Biochemical activity (Ac-LRSR-amc) IC50. The method in brief: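 Fluorescence from AMC release off the quenched LRSR substrate was read after a 4 h reaction at RT. Values were normalised to no-enzyme and uninhibited controls and fitted for IC50 and Hill coefficient.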

The subject of another experiment is Jurkat cells. The experiment is described as follows: PMA Induced IL2 Production In Jurkat Cells. It counts as cell-based. As to conditions: Homo sapiens, PMA/Ionomycin, 20 h, read-out: IL-2 prod h Jurkat PMA IC50. How it is done: Jurkat cells were maintained in complete RPMI 1640 media containing 10% fetal bovine serum, 10 mM HEPES, 100 units/mL of penicillin and 100 μg/mL of streptomycin. Prior to the assay, compounds were made 2- to 4-fold serial dilutions in DMSO. A volume of 10 μL of DMSO-diluted compound in each well were further diluted into 240 μL RPMI1640 complete media. Jurkat cells were harvested by centrifuge at 1200 RPM for 5 min, washed one time with RPMI 1640 media, and suspended in fresh complete RPMI 1640 media at concentration of 1.25×10^6 cell/mL. A volume of 160 uL of Jurkat cells (2×10^5 cells) were seeded in each well of 96 well plate-bottom plates. A volume of 20 uL of diluted compound in RMPI 1640 complete media were added to each well and incubated with Jurkat cells for 30 min at 37° C. in a 5% CO2 incubator. A volume 20 μL of diluted PMA/Ionomycin (81 nM/1.3 uM respectively, ebioscience, catalog number 00-4970-93) in RMPI 1640 complete media were added to each well. After incubation at 37° C. in 5% CO2 incubator for 20 h, supernatants were harvested. IL-2 concentration was assessed by ELISA (IL2 Duoset, R&D Systems, catalog number DY202). Colorimetric intensity at 450 nm was read by Spectramax plate reader and analyzed with Softmax Pro software. Cell viability was assessed by Cell Titer Glo kit (Promega, catalog number G7571) using Victor Luminescence reader (Victor 3V 4202938 by Perkin Elmer).

In experiment [2] the test system is IL6 secretion by TMD8 ABC-DLBCL cells. The experiment is described as follows: Human IL6 Mesoscale assay (TMD-8). Type of experiment: cell-based. As to conditions: Homo sapiens, TMD8; TMD-8 cells, 24 h. The gist of the method: (§1)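 100,000 cells/well treated with compound in 9 twofold steps from 15 μM to 58.6 nM (0.3% DMSO) for 24 h at 37° C; supernatant cytokine measured by MSD electrochemiluminescence sandwich immunoassay. DMSO wells set maximum signal, BTK inhibitor RN486 (30 nM to 131 pM) set maximum inhibition.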

Experiment [3] relates to IL10 secretion by TMD8 ABC-DLBCL cells. Kind of experiment: Human IL10 Mesoscale assay (TMD-8). Type of experiment: cell-based. The note with it: Homo sapiens, TMD8; TMD-8 cells, 24 h. The gist of the method: as §1
A further experiment concerns OCI-Ly3 cells. Kind of experiment: 4-day proliferation assay, OCI-Ly3. It counts as cell-based, human. As to conditions: Homo sapiens, 96 h, 4 days incubation, CellTiterGLO, read-out: Anti-proliferation: OCI-LY-3 IC50. The gist of the method: (§2)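 Each line was plated at 10,000 cells per well for linear growth, with no beta-mercaptoethanol during the assay. OCI-Ly3 cells were below passage 10.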
In general terms: ATP-based viability assays read luminescence as a measure of living cells.

Another experiment has as its system TMD8 cells. The experiment is described as follows: 4-day proliferation assay, TMD8. As to conditions: Homo sapiens, 96 h, 4 days incubation, CellTiterGLO, read-out: Anti-proliferation: TMD-8 IC50. Type of experiment: cell-based. The method in brief:
as §2

Sequence of full-length MALT1 protein (Strep-MALT1(1-824)-His) (Q9UDY8 whole entry): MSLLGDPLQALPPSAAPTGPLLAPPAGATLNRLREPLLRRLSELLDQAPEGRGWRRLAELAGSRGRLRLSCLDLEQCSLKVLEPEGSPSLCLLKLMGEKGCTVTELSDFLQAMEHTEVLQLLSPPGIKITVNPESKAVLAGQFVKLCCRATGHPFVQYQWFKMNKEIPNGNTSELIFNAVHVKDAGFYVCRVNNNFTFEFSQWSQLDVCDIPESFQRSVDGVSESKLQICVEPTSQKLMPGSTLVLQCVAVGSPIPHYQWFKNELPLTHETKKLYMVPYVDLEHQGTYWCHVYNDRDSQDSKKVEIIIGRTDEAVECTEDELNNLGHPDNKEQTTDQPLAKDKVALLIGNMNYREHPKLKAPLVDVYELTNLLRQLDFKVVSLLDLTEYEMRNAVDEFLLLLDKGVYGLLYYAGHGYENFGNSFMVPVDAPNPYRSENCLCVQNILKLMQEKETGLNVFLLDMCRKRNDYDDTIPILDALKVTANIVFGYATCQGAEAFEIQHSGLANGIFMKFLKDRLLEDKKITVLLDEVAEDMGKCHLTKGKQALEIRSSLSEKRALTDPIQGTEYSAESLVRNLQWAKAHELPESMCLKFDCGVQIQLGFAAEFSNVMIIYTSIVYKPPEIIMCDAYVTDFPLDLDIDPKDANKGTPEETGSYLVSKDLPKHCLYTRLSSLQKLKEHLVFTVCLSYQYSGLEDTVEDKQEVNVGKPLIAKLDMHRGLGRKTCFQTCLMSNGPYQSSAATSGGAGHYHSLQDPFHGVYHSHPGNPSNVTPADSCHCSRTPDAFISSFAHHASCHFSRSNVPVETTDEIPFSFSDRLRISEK

For `O=C(Nc1cnc(-n2nccn2)c(Cl)c1)c1cnn(-c2cccc3occc23)c1C(F)(F)F` [Cpd 34, 1-(Benzofuran-4-yl)-N-(5-chloro-6-(2H-1,2,3-triazol-2-yl)pyridin-3-yl)-5-(trifluoromethyl)-1H-pyrazole-4-carboxamide], the IC50 in experiment [1] was 9 nM; in the experiment on Jurkat cells, 16 nM; in experiment [2], about 11 nM; in experiment [3] it was 7 nM; with OCI-Ly3 cells, about 220 nM; with TMD8 cells, about 12 µM.
Turning to `COC(C)c1c(C(=O)Nc2cnc(-n3nccn3)c(Cl)c2)cnn1-c1cccc2ncccc12` (stereo not drawn) [Cpd 35, N-(5-Chloro-6-(2H-1,2,3-triazol-2-yl)pyridin-3-yl)-5-(1-methoxyethyl)-1-(quinolin-5-yl)-1H-pyrazole-4-carboxamide], the IC50 came to 813 nM in experiment [1]; 3240 nM in the experiment on Jurkat cells; 6030 nM in experiment [2]; 2880 nM in experiment [3]; 10700 nM in the experiment on OCI-Ly3 cells; 11 µM in the experiment with TMD8 cells.
As for `Cc1ccc2cncc(-n3ncc(C(=O)Nc4cnc(-n5nccn5)c(Cl)c4)c3C(F)(F)F)c2c1` [Cpd 36, N-(5-Chloro-6-(2H-1,2,3-triazol-2-yl)pyridin-3-yl)-1-(6-methylisoquinolin-4-yl)-5-(trifluoromethyl)-1H-pyrazole-4-carboxamide], the IC50 in experiment [1] is 63 nM; in the experiment on Jurkat cells, 270 nM; in experiment [2], 135 nM; in experiment [3], 141 nM; with OCI-Ly3 cells, 1910 nM; with TMD8 cells, 7.94 µM.
With `O=C(Nc1ccc(-n2nccn2)c(Cl)c1)c1cnn(-c2cncc3ccccc23)c1C(F)(F)F` [Cpd 38, N-(3-chloro-4-(2H-1,2,3-triazol-2-yl)phenyl)-1-(isoquinolin-4-yl)-5-(trifluoromethyl)-1H-pyrazole-4-carboxamide], the IC50 in experiment [1] was 20 nM; in the experiment with Jurkat cells, 21 nM; in experiment [2] it was 46 nM; in experiment [3], 14 nM; in the experiment with OCI-Ly3 cells, 1150 nM; in the experiment with TMD8 cells it was 3.8 µM.
With `Cc1c(C(=O)Nc2cnc(-n3nccn3)c(Cl)c2)cnn1-c1cccc2ncccc12` [Cpd 39, N-(5-Chloro-6-(2H-1,2,3-triazol-2-yl)pyridin-3-yl)-5-methyl-1-(quinolin-5-yl)-1H-pyrazole-4-carboxamide], the IC50 in experiment [1] is 759 nM; in the experiment on Jurkat cells, 1970 nM; in experiment [2], 1950 nM; in experiment [3] it was 955 nM; in the experiment with OCI-Ly3 cells, about 1120 nM; in the experiment on TMD8 cells, 14.5 µM.
On to `O=C(Nc1cnc(-n2nccn2)c(Cl)c1)c1cnn(-c2ccc(F)c3ncccc23)c1C(F)(F)F` [Cpd 40, N-(5-Chloro-6-(2H-1,2,3-triazol-2-yl)pyridin-3-yl)-1-(8-fluoroquinolin-5-yl)-5-(trifluoromethyl)-1H-pyrazole-4-carboxamide], for which the IC50 in experiment [1] was found to be 48 nM; in the experiment on Jurkat cells, 95 nM; in experiment [2], 30 nM; in experiment [3], 35 nM; in the experiment with OCI-Ly3 cells, 150 nM; in the experiment with TMD8 cells, 6.17 µM.
On to `N#Cc1ncc(NC(=O)c2cnn(-c3cncc4ccccc34)c2C(F)(F)F)cc1F` [Cpd 41, N-(6-cyano-5-fluoropyridin-3-yl)-1-(isoquinolin-4-yl)-5-(trifluoromethyl)-1H-pyrazole-4-carboxamide], for which the IC50 is 891 nM in experiment [1]; 300 nM in the experiment on Jurkat cells; about 2090 nM in experiment [2]; 851 nM in experiment [3]; 1580 nM with OCI-Ly3 cells; over 20 µM in the experiment on TMD8 cells.
Consider `O=C(Nc1cnc(N2CCCS2(=O)=O)c(Cl)c1)c1cnn(-c2cncc3ccccc23)c1C(F)(F)F` [Cpd 42, N-(5-Chloro-6-(1,1-dioxidoisothiazolidin-2-yl)pyridin-3-yl)-1-(isoquinolin-4-yl)-5-(trifluoromethyl)-1H-pyrazole-4-carboxamide], for which the IC50 in experiment [1] is 162 nM; with Jurkat cells, 11 nM; in experiment [2], 117 nM; in experiment [3], about 110 nM; with OCI-Ly3 cells, 560 nM; in the experiment on TMD8 cells, 6.17 µM.
Turning to `CN1CCC(Oc2ncc(NC(=O)c3cnn(-c4cncc5ccccc45)c3C(F)(F)F)cc2Cl)CC1` [Cpd 45, N-(5-chloro-6-((1-methylpiperidin-4-yl)oxy)pyridin-3-yl)-1-(isoquinolin-4-yl)-5-(trifluoromethyl)-1H-pyrazole-4-carboxamide], the IC50 is 398 nM in experiment [1]; 73 nM in the experiment with Jurkat cells; 355 nM in experiment [2]; 204 nM in experiment [3]; 340 nM in the experiment with OCI-Ly3 cells; about 9.33 µM in the experiment on TMD8 cells.
Consider `O=C(Nc1cnc(-n2cccn2)c(Cl)c1)c1cnn(-c2cncc3ccccc23)c1C(F)(F)F` [Cpd 46, N-(5-Chloro-6-(1H-pyrazol-1-yl)pyridin-3-yl)-1-(isoquinolin-4-yl)-5-(trifluoromethyl)-1H-pyrazole-4-carboxamide], for which the IC50 in experiment [1] was 56 nM; with Jurkat cells it was 22 nM; in experiment [2], about 46 nM; in experiment [3], 32 nM; with OCI-Ly3 cells, 630 nM; with TMD8 cells, 9.33 µM.
Consider `N#Cc1cc(NC(=O)c2cnn(-c3cncc4ccccc34)c2C(F)(F)F)cnc1-n1nccn1` [Cpd 47, N-(5-cyano-6-(2H-1,2,3-triazol-2-yl)pyridin-3-yl)-1-(isoquinolin-4-yl)-5-(trifluoromethyl)-1H-pyrazole-4-carboxamide], for which the IC50 in experiment [1] is 11 nM; with Jurkat cells, 9 nM; in experiment [2], about 48 nM; in experiment [3], about 10 nM; in the experiment on OCI-Ly3 cells, about 190 nM; with TMD8 cells, 8.13 µM.
For the molecule `CN1CCN(C(=O)c2ncc(NC(=O)c3cnn(-c4cncc5ccccc45)c3C(F)(F)F)cc2Cl)CC1` [Cpd 48, N-(5-chloro-6-(4-methylpiperazine-1-carbonyl)pyridin-3-yl)-1-(isoquinolin-4-yl)-5-(trifluoromethyl)-1H-pyrazole-4-carboxamide], the IC50 is 631 nM in experiment [1]; 450 nM with Jurkat cells; about 830 nM in experiment [2]; about 2140 nM in experiment [3]; 300 nM with OCI-Ly3 cells; 16.2 µM in the experiment with TMD8 cells.
For the molecule `N#Cc1ncc(NC(=O)c2cnn(-c3cncc4ccccc34)c2C(F)(F)F)cc1C(F)(F)F` [Cpd 49, N-(6-cyano-5-(trifluoromethyl)pyridin-3-yl)-1-(isoquinolin-4-yl)-5-(trifluoromethyl)-1H-pyrazole-4-carboxamide], the IC50 in experiment [1] was 155 nM; in the experiment with Jurkat cells it was 18 nM; in experiment [2], about 83 nM; in experiment [3], 76 nM; in the experiment with OCI-Ly3 cells, 410 nM; in the experiment with TMD8 cells it was 5.01 µM.
For the molecule `O=C(Nc1cnc(-c2ncco2)c(Cl)c1)c1cnn(-c2cncc3ccccc23)c1C(F)(F)F` [Cpd 50, N-(5-Chloro-6-(oxazol-2-yl)pyridin-3-yl)-1-(isoquinolin-4-yl)-5-(trifluoromethyl)-1H-pyrazole-4-carboxamide], the IC50 in experiment [1] turned out to be 20 nM; with Jurkat cells, 31 nM; in experiment [2], 107 nM; in experiment [3], 47 nM; in the experiment on OCI-Ly3 cells, 90 nM; in the experiment with TMD8 cells it was 7.08 µM.
As for `Cc1ncnn1-c1ccc(NC(=O)c2cnn(-c3cncc4ccccc34)c2C(F)(F)F)cc1Cl` [Cpd 51, N-(3-Chloro-4-(5-methyl-1H-1,2,4-triazol-1-yl)phenyl)-1-(isoquinolin-4-yl)-5-(trifluoromethyl)-1H-pyrazole-4-carboxamide], the IC50 is 45 nM in experiment [1]; 96 nM in the experiment with Jurkat cells; 62 nM in experiment [2]; 126 nM in experiment [3]; 200 nM with OCI-Ly3 cells; about 6.61 µM with TMD8 cells.

For the origin of these results see patent US10954214B2 (Janssen Pharmaceutica NV, priority 2016, dated 2021).
